The experiment concerns the target transferrin receptor (hTfR) (Homo sapiens, UniProt P02786). Nature of the experiment: Intermolecular interaction evaluation test between transferrin receptor (hTfR) and peptide by surface plasmon resonance (SPR). Format: binding. As to the method: For each of the various synthesized peptides, the intermolecular interaction of the peptide with the transferrin receptor (hTfR) was tested by surface plasmon resonance (SPR) according to the following method. The specific test method is as follows.
An NTA sensor chip (Global Life Sciences Technologies Japan) was inserted in a Biacore T200 (Global Life Sciences Technologies Japan) and a prime operation was performed 3 times with a running buffer: 10 mM HEPES pH 8.0 (Nacalai Tesque), 150 mM NaCl (Nacalai Tesque), 0.05% Tween 20 (Nacalai Tesque), 0.1% BSA (Sigma-Aldrich), 1.0% DMSO (FUJIFILM Wako Pure Chemical) to create an Equilibration state at a flow rate of 30 µL/min. After reacting with 350 mM EDTA solution for 60 seconds at a flow rate of 10 µL/min then reacting with 0.5 mM NiCl2 solution (Kishida Chemical) for 60 seconds at a flow rate of 10 µL/min, the NTA sensor chip was washed with 3 mM EDTA solution (Nacalai Tesque) for 60 seconds at a flow rate of 10 µL/min. After mixing 50 µL each of 60 mM EDC solution (Global Life Sciences Technologies Japan) and 650 mM NHS solution (Global Life Sciences Technologies Japan), the mixture was reacted for 420 seconds at a flow rate of 10 µL/min. By diluting with the running buffer, 150 µL of 3.2 µM hTfR solution was prepared and used for reaction for 600 seconds at a flow rate of 10 µL/min, thereby immobilizing hTfR on the NTA sensor chip. After immobilization, capping was performed by reacting with 1.0 M ethanolamine aqueous solution (Global Life Sciences Technologies Japan) for 420 seconds at a flow rate of 10 µL/min. A peptide dissolution liquid prepared to 10 mM in the DMSO solution was diluted with the running buffer to a final concentration of 10 µM so as to become the peptide dissolution liquid, then peptide solutions of 100 nM, 50 nM, 25 nM, 10 nM and 5 nM were prepared. Kinetics of the peptide to hTfR was acquired by SPR measurement using the above-mentioned samples. Single-cycle kinetics was used as a kinetic evaluation model and curve fitting was performed using Biacore T200 Evaluation Software Version 3.0 (Global Life Sciences Technologies Japan). An obtained sensorgram was subjected to curve fitting using the least-squares method, and the binding of the peptide to hTfR was evaluated by obtaining KD values. […] A chemical structure of hTfR No. 894 is as follows.
The variant peptides were synthesized according to Example 1 unless otherwise stated in Example 9 or 10. The linker-added peptides were synthesized according to Example 1, except that Fmoc-NH-SAL-PEG resin (Watanabe Chemical Industries) was used as a resin for the peptide synthesis when the linker was PEG. The peptide, to which a peptide, a fatty acid, PEG, or a conjugate thereof is added as a linker, was also synthesized according to Example 1, unless otherwise stated in Example 9 or 10.
In general terms: Surface plasmon resonance follows binding to a sensor surface in real time, without labels.

[1] abbreviates: SPR, hTfR, class symbols A-D, read-out: KD.
The mark [2] stands for this setting: SPR, peptides, linker-added peptides and FITC conjugates, Patent ID 203-230, read-out: KD.
Setting [3] is: surface plasmon resonance, peptide vs hTfR, read-out: KD value, hTfR binding by SPR (class symbol).
The mark [4] stands for this setting: surface plasmon resonance, peptide vs hTfR, read-out: KD value for hTfR by SPR (class symbol).

Where two headings read alike, the source gives them in different places. Where a SMILES comes first, the peptide text is derived from it. Bridges are numbered along the chain shown (N, C = ends). [ ]: non-standard residue; d: D form. The star is where a group is joined. X2 = O=C(O)c1cc(C(=O)*)ccc1-c1c2ccc(=O)cc-2oc2cc(O)ccc12; PEG12 = NCCOCCOCCOCCOCCOCCOCCOCCOCCOCCOCCOCCOCCC(=O)O; NMePhe(3-Cl) = CN[C@@H](Cc1cccc(Cl)c1)C(=O)O; NMeW = CN[C@@H](Cc1c[nH]c2ccccc12)C(=O)O; NMeY = CN[C@@H](Cc1ccc(O)cc1)C(=O)O; NMeF = CN[C@@H](Cc1ccccc1)C(=O)O; 4Pal = N[C@@H](Cc1ccncc1)C(=O)O; PEG4 = NCCOCCOCCOCCOCCC(=O)O; dOrn = NCCC[C@@H](N)C(=O)O; Aib = CC(C)(N)C(=O)O

Sequence of transferrin receptor (hTfR) (P02786 whole entry): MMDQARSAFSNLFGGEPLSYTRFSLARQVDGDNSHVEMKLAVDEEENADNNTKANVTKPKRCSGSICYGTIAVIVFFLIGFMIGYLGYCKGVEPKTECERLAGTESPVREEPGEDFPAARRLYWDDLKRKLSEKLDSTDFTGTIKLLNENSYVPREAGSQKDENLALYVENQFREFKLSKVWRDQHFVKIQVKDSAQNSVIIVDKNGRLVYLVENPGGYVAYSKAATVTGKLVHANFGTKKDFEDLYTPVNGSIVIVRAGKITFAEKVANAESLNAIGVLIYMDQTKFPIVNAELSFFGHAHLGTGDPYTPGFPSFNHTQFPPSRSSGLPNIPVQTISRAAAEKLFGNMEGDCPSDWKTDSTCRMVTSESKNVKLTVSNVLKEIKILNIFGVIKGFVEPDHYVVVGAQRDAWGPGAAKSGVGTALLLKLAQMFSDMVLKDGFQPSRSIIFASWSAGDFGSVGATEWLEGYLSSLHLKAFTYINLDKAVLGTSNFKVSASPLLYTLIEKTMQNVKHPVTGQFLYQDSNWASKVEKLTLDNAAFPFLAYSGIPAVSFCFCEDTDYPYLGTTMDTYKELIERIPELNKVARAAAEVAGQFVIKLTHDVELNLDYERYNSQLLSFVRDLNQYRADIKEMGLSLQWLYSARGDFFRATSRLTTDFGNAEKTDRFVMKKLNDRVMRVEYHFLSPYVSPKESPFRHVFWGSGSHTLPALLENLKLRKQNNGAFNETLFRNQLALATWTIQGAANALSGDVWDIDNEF

Broadly, the Kd is the constant that tells how readily two partners part at equilibrium. Regarding `CC[C@H](C)[C@@H]1NC(=O)[C@H](Cc2ccncc2)NC(=O)[C@H](Cc2ccc(O)cc2)NC(=O)[C@H](CC(N)=O)NC(=O)[C@H](Cc2c[nH]c3ccccc23)N(C)C(=O)[C@H](C(C)C)NC(=O)[C@H](Cc2cccc(Cl)c2)N(C)C(=O)[C@H](C(C)C)NC(=O)[C@H](C)NC(=O)CSC[C@@H](C(N)=O)NC(=O)[C@H](Cc2ccc(O)cc2)N(C)C(=O)[C@H](Cc2ccccc2)NC(=O)[C@@H](CCCNC(=N)N)NC(=O)[C@H](CCCNC(=N)N)NC(=O)[C@H]([C@@H](C)CC)NC1=O` [compound 455] ({CH2CO}-AV[NMePhe(3-Cl)]V[NMeW]NY[4Pal]IIR[dR]F[NMeY]C-NH2; thioether N-15), the Kd under setting [1] lay in the range of 1 to 100 nM.

Take `CC[C@H](C)[C@@H]1NC(=O)[C@H](Cc2ccc(OC)cc2)NC(=O)[C@H](Cc2ccc(O)cc2)NC(=O)[C@H](CC(N)=O)NC(=O)[C@H](Cc2c[nH]c3ccccc23)N(C)C(=O)[C@H](C(C)C)NC(=O)[C@H](Cc2cccc(Cl)c2)N(C)C(=O)[C@H](C(C)C)NC(=O)[C@H](C)N(C)C(=O)CSC[C@@H](C(N)=O)NC(=O)[C@H](Cc2ccc(O)cc2)N(C)C(=O)[C@H](Cc2ccccc2)NC(=O)[C@@H](CCCNC(=N)N)NC(=O)[C@H](CCCNC(=N)N)NC(=O)[C@H]([C@@H](C)CC)NC1=O` [compound 215]: the Kd under setting [2] fell in the range of 1 to 100 nM.

In the case of `CC[C@H](C)[C@@H]1NC(=O)[C@H](Cc2ccc(OC)cc2)NC(=O)[C@H](Cc2ccc(O)cc2)NC(=O)[C@H](CC(N)=O)NC(=O)[C@H](Cc2c[nH]c3ccccc23)N(C)C(=O)[C@H](C(C)C)NC(=O)[C@H](Cc2ccccc2)N(C)C(=O)[C@H](C(C)C)NC(=O)[C@H](C)NC(=O)CSC[C@@H](C(=O)NCCOCCOCCOCCOCCC(N)=O)NC(=O)[C@H](Cc2ccc(O)cc2)N(C)C(=O)[C@H](Cc2ccccc2)NC(=O)[C@@H](CCCNC(=N)N)NC(=O)C(C)(C)NC(=O)[C@H]([C@@H](C)CC)NC1=O` [compound 301] ({CH2CO}-AV[NMeF]V[NMeW]NYY(Me)II[Aib][dR]F[NMeY]C[PEG4]-NH2; thioether N-15), under setting [3], the Kd lay in the range of 1 to 100 nM.

For `CC[C@H](C)[C@@H]1NC(=O)[C@H](Cc2ccccc2)NC(=O)[C@H](Cc2ccc(O)cc2)NC(=O)[C@H](CC(N)=O)NC(=O)[C@H](Cc2c[nH]c3ccccc23)NC(=O)[C@H](C(C)C)NC(=O)[C@H](Cc2c[nH]c3ccccc23)NC(=O)[C@H](C(C)C)NC(=O)[C@H](C)NC(=O)CSC[C@@H](C(=O)NCCOCCOCCOCCOCCOCCOCCOCCOCCOCCOCCOCCOCCC(=O)N[C@@H](CCCCNC(=O)c2ccc(-c3c4ccc(=O)cc-4oc4cc(O)ccc34)c(C(=O)O)c2)C(N)=O)NC(=O)[C@H](Cc2c[nH]cn2)NC(=O)[C@H](CCCNC(=N)N)NC(=O)[C@@H]2CCCN2C(=O)[C@H]([C@@H](C)CC)NC1=O` [compound 208] ({CH2CO}-AVWVWNYFIIPRHC[PEG12]K(X2)-NH2; thioether N-14), under setting [2], the Kd was in the range of 1 to 100 nM.

Turning to `CC[C@H](C)[C@@H]1NC(=O)[C@H](Cc2ccc(OC)cc2)NC(=O)[C@H](Cc2ccc(O)cc2)NC(=O)[C@H](CC(N)=O)NC(=O)[C@H](Cc2c[nH]c3ccccc23)N(C)C(=O)[C@H](C(C)C)NC(=O)[C@H](Cc2cccc(Cl)c2)N(C)C(=O)[C@H](CC(=O)O)NC(=O)[C@H](C)NC(=O)CSC[C@@H](C(=O)NCC(=O)NCC(=O)NCC(=O)NCC(=O)N[C@@H](CO)C(=O)N[C@@H](CO)C(=O)N[C@@H](CS)C(N)=O)NC(=O)[C@H](Cc2ccc(O)cc2)N(C)C(=O)[C@H](Cc2ccccc2)NC(=O)[C@@H](CCCNC(=N)N)NC(=O)[C@H](CCCNC(=N)N)NC(=O)[C@H]([C@@H](C)CC)NC1=O` [compound 236] ({CH2CO}-AD[NMePhe(3-Cl)]V[NMeW]NYY(Me)IIR[dR]F[NMeY]CGGGGSSC-NH2; thioether N-15), the Kd was in the range of 100 to 1000 nM.

Consider `CC[C@H](C)[C@@H]1NC(=O)[C@H](Cc2ccc(O)cc2)NC(=O)[C@H](Cc2ccc(O)cc2)NC(=O)[C@H](CC(N)=O)NC(=O)[C@H](Cc2c[nH]c3ccccc23)NC(=O)[C@H](C(C)C)NC(=O)[C@H](Cc2ccccc2)N(C)C(=O)[C@H](C(C)C)NC(=O)[C@H](C)NC(=O)CSC[C@@H](C(=O)NCC(=O)N[C@H](CCC(=O)O)C(=O)N[C@H](CCC(=O)O)C(=O)N[C@H](CCC(=O)O)C(=O)NCC(=O)N[C@H](CCCCN)C(N)=O)NC(=O)[C@H](Cc2ccc(O)cc2)N(C)C(=O)[C@H](Cc2ccc(O)cc2)NC(=O)[C@H](CCCNC(=N)N)NC(=O)[C@H](CCCNC(=N)N)NC(=O)[C@H]([C@@H](C)CC)NC1=O` [compound 444], for which the dissociation constant (Kd) under setting [4] fell in the range of 1 to 100 nM.

`CC[C@H](C)[C@@H]1NC(=O)[C@H](Cc2ccc(O)cc2)NC(=O)[C@H](Cc2ccc(O)cc2)NC(=O)[C@H](CC(N)=O)NC(=O)[C@H](Cc2c[nH]c3ccccc23)NC(=O)[C@H](C(C)C)NC(=O)[C@H](Cc2ccccc2)N(C)C(=O)[C@H](C(C)C)NC(=O)[C@H](C)NC(=O)CSC[C@@H](C(=O)NCC(=O)N[C@H](CCC(=O)O)C(=O)N[C@H](CCC(=O)O)C(=O)N[C@H](CCC(=O)O)C(=O)N[C@@H](CO)C(=O)N[C@@H](CO)C(=O)N[C@@H](CSCC(=O)NC)C(N)=O)NC(=O)[C@H](Cc2ccc(O)cc2)N(C)C(=O)[C@H](Cc2ccc(O)cc2)NC(=O)[C@H](CCCNC(=N)N)NC(=O)[C@H](CCCNC(=N)N)NC(=O)[C@H]([C@@H](C)CC)NC1=O` [compound 424]: under setting [4], the Kd lay in the range of 1 to 100 nM.

Consider `CC[C@H](C)[C@@H]1NC(=O)[C@H](Cc2ccc(OC)cc2)NC(=O)[C@H](Cc2ccc(O)cc2)NC(=O)[C@H](CC(N)=O)NC(=O)[C@H](Cc2c[nH]c3ccccc23)N(C)C(=O)[C@H](C(C)C)NC(=O)[C@H](Cc2cccc(Cl)c2)N(C)C(=O)[C@H](C(C)C)NC(=O)[C@H](C)N(C)C(=O)CSC[C@@H](C(N)=O)NC(=O)[C@H](Cc2ccc(O)cc2)N(C)C(=O)[C@H](Cc2ccccc2)NC(=O)[C@H](CCCNC(=N)N)NC(=O)[C@H](CCCNC(=N)N)NC(=O)[C@H]([C@@H](C)CC)NC1=O` [compound 214], for which the dissociation constant (Kd) under setting [2] fell in the range of 1 to 100 nM.

Regarding `CC[C@H](C)[C@@H]1NC(=O)[C@H](Cc2ccc(OC)cc2)NC(=O)[C@H](Cc2ccc(O)cc2)NC(=O)[C@H](CC(N)=O)NC(=O)[C@H](Cc2c[nH]c3ccccc23)N(C)C(=O)[C@H](C(C)C)NC(=O)[C@H](Cc2ccncc2)N(C)C(=O)[C@H](C(C)C)NC(=O)[C@H](C)NC(=O)CSC[C@@H](C(N)=O)NC(=O)[C@H](Cc2ccc(O)cc2)N(C)C(=O)[C@H](Cc2ccccc2)NC(=O)[C@@H](CCCNC(=N)N)NC(=O)[C@H](CCCNC(=N)N)NC(=O)[C@H]([C@@H](C)CC)NC1=O` [compound 451], the Kd under setting [1] was in the range of 100 to 1000 nM.

Regarding `CC[C@H](C)[C@@H]1NC(=O)[C@H](Cc2ccc(O)cc2)NC(=O)[C@H](Cc2ccc(O)cc2)NC(=O)[C@H](CC(N)=O)NC(=O)[C@H](Cc2c[nH]c3ccccc23)N(C)C(=O)[C@H](C(C)C)NC(=O)[C@H](Cc2cccc(Cl)c2)N(C)C(=O)[C@@H]2CCC(=O)NCCCCC[C@H](NC(=O)[C@H]([C@@H](C)CC)NC1=O)C(=O)N[C@@H](CCCNC(=N)N)C(=O)N[C@@H](Cc1ccc(O)cc1)C(=O)N(C)[C@@H](Cc1ccc(O)cc1)C(=O)N[C@H](C(N)=O)CSCC(=O)N[C@@H](C)C(=O)N2` [compound 411], the Kd under setting [4] lay in the range of 1 to 100 nM.

For the molecule `CC[C@H](C)[C@@H]1NC(=O)[C@H](Cc2ccc(OC)cc2)NC(=O)[C@H](Cc2ccc(O)cc2)NC(=O)[C@H](CC(N)=O)NC(=O)[C@H](Cc2c[nH]c3ccccc23)N(C)C(=O)[C@H](C(C)C)NC(=O)[C@H](Cc2cccc(Cl)c2)N(C)C(=O)[C@H](C(C)C)NC(=O)[C@H](C)NC(=O)CSC[C@@H](C(=O)NCCOCCOCCOCCOCCC(N)=O)NC(=O)[C@H](Cc2ccc(O)cc2)N(C)C(=O)[C@H](Cc2ccccc2)NC(=O)[C@@H](CCCNC(=N)N)NC(=O)[C@H](CCCNC(=N)N)NC(=O)[C@@H](CCCN)NC1=O` [compound 338] ({CH2CO}-AV[NMePhe(3-Cl)]V[NMeW]NYY(Me)I[dOrn]R[dR]F[NMeY]C[PEG4]-NH2; thioether N-15), the Kd under setting [3] lay in the range of 1 to 100 nM.
